According to ChEMBL document CHEMBL4190300, “Discovery and Synthesis of Caracolamide A, an Ion Channel Modulating Dichlorovinylidene Containing Phenethylamide from a Panamanian Marine Cyanobacterium cf. Symploca Species” (J Nat Prod, 2017):
Active and inactive are the calls of the source. The rule behind the calls is not given here.

Experiments:
NCI-H460 = test: Cytotoxicity against human NCI-H460 cells after 48 hrs by MTT assay; format: functional, cell-based; conditions: NCI-H460, 48 h
Mus musculus = species on record: Mus musculus; test: Inhibition of spontaneous calcium oscillations in Swiss Webster mouse neocortical neurons at 0.01 nM to 1000 nM measured for 2 mins by Fluo-3 AM dye based FLIPR assay

Structure (SMILES)	IC50 (NCI-H460)	inhibition (Mus musculus)
C=CC[C@@H](C[C@@H](C[C@@H](C[C@@H](C[C@@H](C[C@@H](C[C@@H](C[C@@H](C[C@@H](C[C@@H](CCCCC)OC)OC)OC)OC)OC)OC)OC)OC)OC)OC	> 10 µM	–
NCCc1ccccc1	–	Active
O=C(CCCCCC=C(Cl)Cl)NCCc1ccccc1	> 10 µM	Active
